{"source": "ChEMBL document CHEMBL3769336", "about": "“Discovery of a Chemical Tool Inhibitor Targeting the Bromodomains of TRIM24 and BRPF” (J Med Chem, 2016)", "key": {"RKO": {"test_system": "RKO", "experiment": "Cytotoxicity against human RKO cells at 5x10'-5 M to 8x10'-8 M after 72 hrs by CellTiter-Glo assay", "format": "functional, cell-based"}, "JJN-3": {"test_system": "JJN-3", "experiment": "Cytotoxicity against human JJN-3 cells at 5x10'-5 M to 8x10'-8 M after 72 hrs by CellTiter-Glo assay", "format": "functional, cell-based"}, "[1]": {"target": "T1, Bromodomain-containing protein 1 (Homo sapiens, UniProt O95696)", "T1 sequence (O95696 whole entry)": "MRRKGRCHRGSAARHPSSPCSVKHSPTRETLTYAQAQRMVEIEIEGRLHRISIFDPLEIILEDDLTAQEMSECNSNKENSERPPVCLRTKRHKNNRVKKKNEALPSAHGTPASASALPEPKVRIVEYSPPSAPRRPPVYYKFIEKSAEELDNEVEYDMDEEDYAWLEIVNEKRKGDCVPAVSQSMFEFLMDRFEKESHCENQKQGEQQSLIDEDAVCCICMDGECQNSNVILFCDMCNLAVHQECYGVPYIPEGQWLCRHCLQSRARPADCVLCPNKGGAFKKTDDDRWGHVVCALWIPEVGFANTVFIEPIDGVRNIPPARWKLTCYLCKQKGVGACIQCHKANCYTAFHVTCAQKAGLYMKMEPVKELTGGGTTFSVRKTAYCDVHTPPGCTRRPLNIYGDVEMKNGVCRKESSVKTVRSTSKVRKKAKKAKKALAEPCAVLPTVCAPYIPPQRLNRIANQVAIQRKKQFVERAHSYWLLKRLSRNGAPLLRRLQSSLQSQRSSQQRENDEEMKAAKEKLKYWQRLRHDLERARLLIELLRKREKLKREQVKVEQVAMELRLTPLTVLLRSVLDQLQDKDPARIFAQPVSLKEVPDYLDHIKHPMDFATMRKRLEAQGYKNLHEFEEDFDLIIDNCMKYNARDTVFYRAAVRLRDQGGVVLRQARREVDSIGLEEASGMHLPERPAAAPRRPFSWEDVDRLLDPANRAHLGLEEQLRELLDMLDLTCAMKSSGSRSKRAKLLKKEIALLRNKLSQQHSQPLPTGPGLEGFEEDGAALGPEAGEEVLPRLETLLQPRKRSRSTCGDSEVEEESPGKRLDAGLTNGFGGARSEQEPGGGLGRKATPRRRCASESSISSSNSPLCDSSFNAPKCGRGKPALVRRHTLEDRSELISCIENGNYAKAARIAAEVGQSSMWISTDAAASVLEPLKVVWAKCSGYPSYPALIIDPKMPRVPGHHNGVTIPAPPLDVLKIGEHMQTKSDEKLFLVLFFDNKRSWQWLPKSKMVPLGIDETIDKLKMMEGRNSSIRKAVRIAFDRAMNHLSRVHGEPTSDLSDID", "experiment": "Inhibition of BRPF2 BRD1 (unknown origin) by Alpha Screen assay"}, "RCH-ACV": {"test_system": "RCH-ACV", "experiment": "Cytotoxicity against human RCH-ACV cells at 5x10'-5 M to 8x10'-8 M after 72 hrs by CellTiter-Glo assay", "format": "functional, cell-based"}, "[2]": {"target": "T2, Transcription intermediary factor 1-alpha (Homo sapiens, UniProt O15164)", "T2 sequence (O15164 whole entry)": "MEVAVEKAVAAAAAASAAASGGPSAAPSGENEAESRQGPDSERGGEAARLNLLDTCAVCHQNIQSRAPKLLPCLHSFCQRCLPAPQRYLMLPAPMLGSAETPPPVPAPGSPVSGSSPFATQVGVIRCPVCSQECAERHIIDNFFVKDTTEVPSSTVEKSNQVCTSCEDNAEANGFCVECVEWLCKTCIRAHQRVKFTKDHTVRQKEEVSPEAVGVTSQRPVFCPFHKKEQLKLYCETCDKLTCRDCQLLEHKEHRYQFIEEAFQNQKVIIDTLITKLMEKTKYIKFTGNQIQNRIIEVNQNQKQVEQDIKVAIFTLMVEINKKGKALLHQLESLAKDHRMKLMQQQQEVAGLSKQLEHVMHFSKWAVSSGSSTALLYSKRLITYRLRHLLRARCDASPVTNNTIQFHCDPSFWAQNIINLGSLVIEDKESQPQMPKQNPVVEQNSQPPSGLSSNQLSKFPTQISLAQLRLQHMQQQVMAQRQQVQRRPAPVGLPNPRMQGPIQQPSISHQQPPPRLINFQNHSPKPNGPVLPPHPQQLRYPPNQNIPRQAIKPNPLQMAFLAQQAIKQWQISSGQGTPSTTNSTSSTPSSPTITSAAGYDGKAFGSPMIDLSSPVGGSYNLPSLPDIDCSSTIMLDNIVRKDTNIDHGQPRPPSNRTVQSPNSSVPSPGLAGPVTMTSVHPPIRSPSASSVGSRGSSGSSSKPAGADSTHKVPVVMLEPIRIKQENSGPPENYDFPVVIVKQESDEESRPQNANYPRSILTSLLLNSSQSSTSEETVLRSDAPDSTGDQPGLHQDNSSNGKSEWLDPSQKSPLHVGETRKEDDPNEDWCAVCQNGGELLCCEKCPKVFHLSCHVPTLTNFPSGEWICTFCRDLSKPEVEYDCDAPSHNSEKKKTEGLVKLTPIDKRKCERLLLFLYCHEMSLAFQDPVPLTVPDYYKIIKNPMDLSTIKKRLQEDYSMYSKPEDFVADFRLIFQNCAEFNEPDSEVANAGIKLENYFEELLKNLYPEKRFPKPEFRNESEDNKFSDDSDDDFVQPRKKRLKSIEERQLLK", "experiment": "Binding affinity to N-terminal His6-SUMO-1-tagged recombinant human TRIM24 bromodomain expressed in Escherichia coli BL21(DE3)-R3-pRARE2 cells by isothermal titration calorimetry"}, "[3]": {"target": "T2, Transcription intermediary factor 1-alpha", "experiment": "Inhibition of N-terminal His6-SUMO-1-tagged recombinant human TRIM24 bromodomain expressed in Escherichia coli BL21(DE3)-R3-pRARE2 cells by Alpha Screen assay"}}, "note": "Active and inactive are the calls of the source. No cut-off for these calls is given here."}
{"smiles": "COc1ccc(Oc2cc3c(cc2NS(=O)(=O)c2ccc(OC)c(OC)c2)n(C)c(=O)n3C)cc1", "values": [{"measurement": "Activity", "setting": "RKO", "result": "inactive"}, {"measurement": "Activity", "setting": "JJN-3", "result": "inactive"}, {"measurement": "IC50", "setting": "[1]", "result": 1.75, "unit": "µM"}, {"measurement": "Activity", "setting": "RCH-ACV", "result": "inactive"}, {"measurement": "Kd", "setting": "[2]", "result": 0.222, "unit": "µM"}, {"measurement": "IC50", "setting": "[3]", "result": 0.43, "unit": "µM"}]}
